Paper PMC10781884 (Computational and Structural Biotechnology Journal, 2023)
Ends that are not written are not given here.

Tests used:
[1] = tested on: Micrococcus luteus; assay: Minimum inhibitory and minimum bactericidal concentrations; type: cell-based; settings: bacterium not named in the method sentence; Fig. 6 uses Micrococcus luteus
[2] = tested on: Pseudomonas fluorescens; assay: Bactericidal activity of MPEG1 peptides, plate count; type: cell-based; settings: peptide 20 µM, 4 h

Sequence | minimum bactericidal concentrations (MBCs) [1] [µM] | effect on the propagation of P. fluorescens [2]
KCFLRRRRSRA [Bc] | 20 | –
MKRRRKFSHFSFKRGY [Dr-2] | 10 | –
RKWRSKRKQKSKKSSQRYM [Aq-2] | 40 | –
RRHKSVKRDSRGLT [Nv] | – | slightly enhance the propagation
RRNRRRSRSSLSPTTSN [Aj-2] | – | slightly enhance the propagation
VKRRRRLAGFRTVRGY [Sc] | 20 | –
